Test results: ChEMBL document CHEMBL1201862, “PubChem BioAssay data set” (2004)
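Values below derive from 48-hour exposures of cells grown in 96-well plates, with endpoints linearly interpolated between the two concentrations bracketing the appropriate inhibition level. The concentration for 50% growth inhibition is given as GI50.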 Calls of active or inactive are those of the source. No stated cut-off is given here; in the data, active = GI50 up to about 1.1 µM and inactive = higher.

What was measured:
Assay in all cases: NCI-60 cell line screen, 48 h
M19-MEL = test system: M19-MEL
SK-MEL-5 = test system: SK-MEL-5
CAKI-1 = test system: CAKI-1
KM-20L2 = test system: KM-20L2
SNB-75 = test system: SNB-75
DLD-1 = test system: DLD-1
LXFL 529 = test system: LXFL 529
A498 = test system: A498
DMS-114 = test system: DMS-114
M14 = test system: M14
SNB-78 = test system: SNB-78
NCI-H226 = test system: NCI-H226
XF498 = test system: XF498
TK-10 = test system: TK-10
DMS-273 = test system: DMS-273
HOP-92 = test system: HOP-92
MCF7 = test system: MCF7
NCI/ADR-RES = test system: NCI/ADR-RES
DU-145 = test system: DU-145
Hs-578T = test system: Hs-578T

Measured: GI50

COc1cc([N+](=O)[O-])ccc1NC(=O)c1cccc([N+](=O)[O-])c1O
inactive: M19-MEL 24.6 µM | SK-MEL-5 6.46 µM | CAKI-1 17 µM | KM-20L2 27.5 µM | SNB-75 21.1 µM | DLD-1 16.1 µM | LXFL 529 21.3 µM | A498 17.9 µM | DMS-114 22.7 µM | M14 45 µM | SNB-78 27.9 µM | NCI-H226 38.7 µM

CN(C)c1nc(N(C)C)nc(N(C)CN(C)c2ccccc2)n1
inactive: M19-MEL > 100 µM | SK-MEL-5 88.7 µM | XF498 > 100 µM | SNB-75 > 100 µM | LXFL 529 > 100 µM | DMS-114 63.5 µM | SNB-78 > 100 µM | NCI-H226 > 100 µM | TK-10 > 100 µM

Cc1cc(C)n2c(-c3ccccc3)c(C)cc2n1
inactive: DMS-273 27.5 µM | M19-MEL 30.2 µM | SK-MEL-5 26.9 µM | HOP-92 53.2 µM | CAKI-1 30.9 µM | KM-20L2 29 µM | SNB-75 23.1 µM | DLD-1 42.3 µM | A498 35.2 µM | DMS-114 23.8 µM | M14 43.5 µM | SNB-78 94.6 µM | NCI-H226 36.2 µM | TK-10 > 100 µM

Cc1cc(NS(=O)(=O)c2ccc(NC(=O)c3cccc4c(Nc5ccc(S(N)(=O)=O)cc5)c5ccccc5nc34)cc2)no1
inactive: M19-MEL > 100 µM | XF498 59.7 µM | SNB-75 60 µM | DLD-1 > 100 µM | LXFL 529 > 100 µM | A498 > 100 µM | DMS-114 > 100 µM | M14 > 100 µM | SNB-78 > 100 µM | TK-10 > 100 µM

Cc1ccccc1-c1nc2c(C(=O)NCCN(C)C)cccc2[nH]1
inactive: MCF7 41 µM | DMS-273 31.5 µM | SK-MEL-5 21.7 µM | HOP-92 20.6 µM | CAKI-1 47.6 µM | XF498 39.7 µM | NCI/ADR-RES 34.3 µM | KM-20L2 25.6 µM | SNB-75 39.3 µM | DLD-1 37.7 µM | A498 42.3 µM | DMS-114 47.5 µM | SNB-78 51.5 µM | NCI-H226 16 µM

NNc1nnc(CCCCCCCCc2nnc(NN)n2N)n1N
inactive: DU-145 > 100 µM | MCF7 > 100 µM | SK-MEL-5 > 100 µM | HOP-92 28 µM | CAKI-1 > 100 µM | NCI/ADR-RES 80.4 µM | SNB-75 60.3 µM | A498 > 100 µM | M14 > 100 µM | NCI-H226 > 100 µM | TK-10 > 100 µM

Cc1nn(-c2ccccc2)c(-c2ccccc2[N+](=O)[O-])c1CC#N
inactive: DMS-273 > 100 µM | M19-MEL > 100 µM | SK-MEL-5 7.87 µM | HOP-92 27.8 µM | CAKI-1 > 100 µM | XF498 21.5 µM | KM-20L2 > 100 µM | SNB-75 > 100 µM | LXFL 529 > 100 µM | DMS-114 98.6 µM | M14 > 100 µM | SNB-78 > 100 µM | TK-10 > 100 µM

CCN(/N=C1\CC2C=CCN(C2)C(=O)Cc2c1[nH]c1ccccc21)S(=O)(=O)c1ccc(C)cc1 (centres undefined)
inactive: DMS-273 62.4 µM | M19-MEL 76.7 µM | SK-MEL-5 56.6 µM | CAKI-1 25.4 µM | XF498 > 100 µM | KM-20L2 64.1 µM | SNB-75 35.6 µM | DLD-1 53.3 µM | DMS-114 64.6 µM | NCI-H226 14.6 µM | TK-10 > 100 µM

CCOC(=O)C1=C(Nc2cccc(OC)c2)OCC1=O
inactive: DU-145 68.7 µM | MCF7 > 100 µM | SK-MEL-5 > 100 µM | HOP-92 > 100 µM | CAKI-1 > 100 µM | NCI/ADR-RES > 100 µM | SNB-75 > 100 µM | Hs-578T > 100 µM | A498 27.7 µM | M14 > 100 µM | NCI-H226 > 100 µM | TK-10 > 100 µM

O=C1OC(c2ccc(O)c(F)c2)(c2ccc(O)c(F)c2)c2cccc3cccc1c23
inactive: DU-145 > 25 µM | MCF7 1.79 µM | SK-MEL-5 > 25 µM | HOP-92 > 25 µM | CAKI-1 2.79 µM | NCI/ADR-RES 24.7 µM | Hs-578T 2.03 µM | A498 > 25 µM | M14 > 25 µM | NCI-H226 > 25 µM | TK-10 > 25 µM

Cc1ccc(NC(=O)c2cccc([N+](=O)[O-])c2O)c(C)c1
inactive: M19-MEL 24.4 µM | CAKI-1 6.97 µM | KM-20L2 21.5 µM | SNB-75 23.5 µM | DLD-1 14.3 µM | LXFL 529 14.7 µM | A498 12.9 µM | DMS-114 20.1 µM | M14 36.6 µM | SNB-78 26.9 µM | NCI-H226 17.1 µM

NC(=O)Oc1ccccc1 [CARBAMIC ACID PHENYL ESTER]
inactive: DU-145 > 100 µM | MCF7 > 100 µM | SK-MEL-5 > 100 µM | HOP-92 > 100 µM | NCI/ADR-RES > 100 µM | SNB-75 > 100 µM | Hs-578T > 100 µM | A498 > 100 µM | M14 > 100 µM | NCI-H226 > 100 µM | TK-10 > 100 µM
